Series [1] concerns R. oryzae. In words: Survival of guinea pigs infected with R. oryzae and treated with iron chelators. The series is classed as in vivo. As to conditions: guinea pigs infected with R. oryzae. From the text: The role of iron metabolism in the pathogenesis of mucormycosis allows the possibility of utilizing effective iron chelators for antifungal therapy, including as an adjunctive antifungal therapy.

A further series concerns R. oryzae 99-880. Kind of series: MIC and MFC of deferiprone and deferoxamine against R. oryzae. The series is classed as cell-based, Rhizopus oryzae. As to conditions: for MFC / MIC: R. oryzae. The method, then: Initially, the in vitro activity of deferiprone against R. oryzae was assessed in this study. Briefly, R. oryzae 99-880 was isolated from a brain abscess of a diabetic patient. The organism was grown on potato dextrose agar (PDA) for 3 days at 37° C. In some experiments, R oryzae was starved for iron by growth on PDA in the presence of 1 mM of ascorbic acid and ferrozine. The sporangiospores were collected in endotoxin free PBS containing 0.01% Tween 80, washed with PBS then counted with hemacytometer to prepare the final inocula. For susceptibility testing, the minimum inhibitory concentration (MIC) and minimum fungicidal concentration (MFC) were determined for Def and deferoxamine by the method of Espinel-Ingroff (J Clin Microbiol 39:954 (2001)).

Series [2] concerns R. oryzae. In words: Tissue fungal burden of DKA mice infected with R. oryzae. The series is classed as in vivo, BALB/c male mice. Conditions: 3.8×10^3 spores, two doses, brains harvested about 54 h post-infection, P<0.036. The method, then:
(§1) Briefly, for in vivo infection, BALB/c male mice (>20 g) were rendered diabetic with a single i.p. injection of 210 mg/kg streptozotocin in 0.2 ml citrate buffer 10 days prior to fungal challenge. […] Mice were infected through the tail vein with the appropriate inocula of R. oryzae. To confirm the inocula, dilutions were streaked on PDA plates and colonies were counted following a 24 h incubation period at room temperature. The primary efficacy endpoint was time to death. As a secondary endpoint, brain fungal burden (the primary target organ) was determined by homogenization by rolling a pipette on organs placed in Whirl-Pak bags (Nasco, Fort Atkinson, Wis.) containing 2 ml saline. The homogenate was serially diluted in 0.85% saline and then quantitatively cultured on PDA. Values were expressed as log 10 cfu g^−1 tissue. All procedures involving mice were approved by the institutional animal use and care committee, following the National Institutes of Health guidelines for animal housing and care.
(§2) For in vivo infection, BALB/c male mice (>20 g) were rendered diabetic with a single i.p. injection of 210 mg/kg streptozotocin in 0.2 ml citrate buffer 10 days prior to fungal challenge. […] For neutropenic mouse model, mice were injected with a single i.p. dose of 200 mg/kg cyclolphosphamide (Bristol Myer Squibb) 2 days prior to infection with R. oryzae. […] Mice were infected through the tail vein with the appropriate inocula of R. oryzae. To confirm the inocula, dilutions were streaked on PDA plates containing 0.1% triton and colonies were counted following a 24 h incubation period at 37° C. The primary efficacy endpoint was time to death. As a secondary endpoint, brain fungal burden (the primary target organ) was determined by homogenization by rolling a pipette on organs placed in Whirl-Pak™ bags (Nasco®, Fort Atkinson, Wis.) containing 1 ml saline. The homogenate was serially diluted in 0.85% saline and then quantitatively cultured on PDA. Values were expressed as log10 cfu g−1 tissue. Finally, for histopathological analysis, infected organs were collected from mice and fixed in 10% zinc formalin. Fixed tissues were embedded in paraffin, and […] sections were stained with haematoxylin and eosin for light microscopy examination. All procedures involving mice were approved by the institutional animal use and care committee, following the National Institutes of Health guidelines for animal housing and care.

In series [3] the test system is R. oryzae. In words: Survival of diabetic ketoacidotic (DKA) mice infected with R. oryzae. The series is classed as in vivo, BALB/c male mice. As to conditions: for survival compared to placebo: 4.3×10^3 spores; for efficacy of Def on administration of FeCl3: Def 100 mg/kg qod plus FeCl3 60 mg/kg iv. The method, then: as §1
Deferiprone (Apotex Research Inc.) was dissolved in iron-free water and administered intraperitoneally at 50, 100, or 200 mg/kg qd or qod (every other day). Treatment was begun 24 h post infection and continued for a total of 4 doses. Control groups were treated with the diluent, 5% dextrose water.
Deferiprone is known to form molecular complexes with ferric iron (^3+Fe) in a 1:3 ratio of iron to deferiprone. Based on the known molecular weights of ferric chloride (FeCl3, molecular weight 162.22 g/mol) and deferiprone (molecular weight 139 g/mol), a 60 mg/kg dose of FeCl3 was calculated to result in a significant excess of ^3+Fe vs. a 100 mg/kg dose of deferiprone given to an 18 g mouse: ^3+Fe moles=(0.060 g/kg*0.018 kg [mouse weight]/162.22 g/mol)=6.5×10^−6 mol vs. deferiprone moles=(0.1 g/kg*0.018 kg [mouse weight]/139 g/mol)=1.3×10^−5 mol Ratio=1:2 moles of ^3+Fe to deferiprone, which is more than that required to achieve a saturating 1:3 ratio.
Statistical analysis was performed using the nonparametric log rank test was used to determine differences in survival times of the mice. Differences in tissue fungal burdens in the infected organs were compared by the nonparametric Steel test for multiple comparisons. P values of <0.05 were considered significant.
Deferasirox (Novartis Pharmaceuticals, Basel, Switzerland) was suspended in 0.5% hydroxypropylcellulose (Klucel) and administered by oral gavage at 1, 3, or 10 mg/kg […] (qd) or every other day (qod). Treatment was begun 24 h post infection and continued for a total of 5 or 7 doses. Control groups were treated with the diluent, 5% dextrose water and 0.5% Klucel. In some experiments, a saturating dose of free iron was administered with deferasirox. Deferasirox is known to form molecular complexes with ferric iron (^3+Fe) in a 1:2 ratio of iron to deferasirox. Based on the known molecular weights of ferric chloride (FeCl3, molecular weight 162.22 g/mol) and deferasirox (molecular weight 373.4 g/mol), a 2.8 mg/kg dose of FeCl3 was calculated to result in a significant excess of ^3+Fe vs. a 10 mg/kg dose of deferasirox given to an 18 g mouse: ^3+Fe moles=(0.0028 g/kg*0.018 kg [mouse weight]/162.22 g/mol)=3×10^−7 mol vs. deferasirox moles=(0.01 g/kg*0.018 kg [mouse weight]/373.4 g/mol)=5×10^−7 mol Ratio=1:1.7 moles of ^3+Fe to deferasirox, which is more than that required to achieve a saturating 1:2 ratio.
The nonparametric log rank test was used to determine differences in survival times of the mice. Differences in tissue fungal burdens, splenic lymphocyte frequencies, and whole organ cytokines in the infected organs were compared by the Mann Whitney U test. P values of <0.05 were considered significant.

For series [4], the system named is R. oryzae. Kind of series: Survival of neutropenic mice infected with R. oryzae. As to conditions: prophylaxis from day −1, Def qod, LAmB qd or both, four doses, placebo 0%. The class given is in vivo. The method, then:
as §2
Two days later, mice were infected via the tail-vein with 2.7×10^3 spores of R. oryzae 99-892.

A further series concerns invasive mucormycosis. Conditions: patients treated with deferoxamine; cited from earlier work.
[5] abbreviates: Rhizopus arrhizus, 99880, 24 h, 24 h.
Where [6] appears, read: Rhizopus arrhizus, 99880, 48 h, 48 h.

The source of these data is US20100129434A1, “COMPOSITIONS AND METHODS FOR THE TREATMENT OF MUCORMYCOSIS AND OTHER FUNGAL DISEASES” (priority 2006, published 2010).

≈ marks a conversion by molar mass, not a printed value.

As to `CCc1c(O)c(=O)ccn1CC` [CP94], the “Mean (±SD) Survival Time” value in the series on R. oryzae [1] worked out at 8.7 ± 1.0 days.

The term MIC denotes the smallest concentration in the dilution series that meets the test's criterion for growth inhibition. A lower MIC goes with greater potency. Turning to `Cc1c(O)c(=O)ccn1C` [Deferiprone, 1,2 dimethyl-3-hydroxypyrid-4-1], the “static or cidal effect against R. oryzae” value with R. oryzae 99-880 (24 h of incubation) was “static”; in the series on R. oryzae 99-880 (24 h of incubation, listed as deferiprone), “static effect”; with R. oryzae 99-880 (48 h of incubation), “cidality”; in the series with R. oryzae 99-880 (48 h of incubation, listed as deferiprone), “cidal effect”. This compound also displayed an MFC in the series with R. oryzae 99-880 (48 h) of 6.25 µg/mL (≈ 44.9 µM). For the same compound, the figures for the MIC against R. oryzae 99-880 (setting [5]) and against R. oryzae 99-880 (setting [6]) were 3.12 µg/mL (≈ 22.4 µM) and 6.25 µg/mL (≈ 44.9 µM), respectively. Further, the “Mean (±SD) Survival Time” value with R. oryzae [1] was found to be 16.2 ± 4.0 days. For the same compound, the “brain fungal burden compared to placebo” value in the series with R. oryzae [2] is given as “reduced brain fungal burden”. This compound came in with a 28-day survival in the series with R. oryzae [3] (DKA mice infected with R. oryzae, treatment from 24 h post infection, 4 doses, LAmB 15 mg/kg qd iv, Def 100 mg/kg qod ip, placebo 0%) of 30%. For the same compound, the “survival compared to placebo” value is recorded as “did not improve survival” with R. oryzae [3] (DKA mice, 50 mg/kg qd or qod); “did not improve survival” in the series with R. oryzae [3] (DKA mice, 100 mg/kg qd or 200 mg/kg qd or qod); “improved survival” with R. oryzae [3] (DKA mice, 100 mg/kg qod, 4 doses from 24 h post infection, P=0.027). For the same compound, the “efficacy of Def on administration of FeCl3” value with R. oryzae [3] (DKA mice) is recorded as “completely abrogated”; with R. oryzae [3] (DKA mice, listed as Def), “abrogated”. For the same compound, the “28-day survival compared to placebo” value in the series on R. oryzae [3] (DKA mice, LAmB 15 mg/kg qd or deferiprone 100 mg/kg qod, P<0.003 Log Rank) is on record as “improved 28-day survival”. Further, the survival in the series on R. oryzae [4] worked out at 22%.

As to `CC(=O)N(O)CCCCCNC(=O)CCC(=O)N(O)CCCCCNC(=O)CCC(=O)N(O)CCCCCN` [Deferoxamine], the MFC in the series with R. oryzae 99-880 (24 h, listed as deferoxamine) was above 100 µg/mL; in the series with R. oryzae 99-880 (48 h, listed as deferoxamine), above 100 µg/mL. The MIC against R. oryzae 99-880 (setting [5]) and against R. oryzae 99-880 (setting [6]) was above 100 µg/mL throughout. In addition, in the series on R. oryzae [1], the “Mean (±SD) Survival Time” value stood at 4.8 ± 1.1 days. Also, the “mortality of invasive mucormycosis” value with invasive mucormycosis is above 80%.
